From patent US20180110774A1, “COMPOSITIONS AND METHODS FOR TREATMENT OF PULMONARY HYPERTENSION” (STC.UNM, priority 2015, published 2018)

Tests used:
[1] = test system: TH17 cell development; details: Solt et al., 2011; cited from earlier work
[2] = test system: CH-induced PH; assay: Development of chronic hypoxia (CH)-induced pulmonary hypertension, 21 days; assay type: in vivo; details: mice, CH 21 days; SR1001 0.625 mg/day for 25 g mouse s.c. osmotic pump
Method: FIGS. 6A-D—Inhibition of TH17 cell polarization attenuates the development of CH-induced PH. SR1001 prepared in propylene glycol, 0.625 mg/day for 25 g mouse, was delivered sub-cutaneously via an implantable osmotic pump. Mice were exposed to normoxia or chronic hypoxia for 21 days, at which point (A) RVSP, (B) Fulton's index, (C) pulmonary arterial % wall thickness (<150 μm diameter) and (D) hematocrit were measured. Values are means±SEM; *p<0.05 vs. normoxia vehicle #p<0.05 vs. normoxic SR1001, n=4-5/group, analyzed by 2-way ANOVA followed by multiple comparisons Student-Newman-Keuls test.
(§1) Methods: Age- and sex-matched mice C57BL/6J wild-type (WT), RAG1 KO mice (lack mature T and B cells), IL-17-GFP mice (express EGFP in cells expressing IL-17A), were used in these studies (The Jackson Laboratory). Mice were exposed to chronic hypoxia (CH) for 2 to 21 days in a hypobaric chamber maintained at a barometric pressure of 380 mmHg. Normoxic animals were housed in identical cages in the same facility under normobaric conditions (PB=630 mmHg in Albuquerque, N. Mex.).
CD4+ T cells contribute to chronic hypoxia-induced pulmonary hypertension. To directly assess the contribution of T cells to CH-induced PH, recombination-activating gene 1 (RAG1) knockout mice, which lack the enzyme that plays a crucial role in the development of T and B cells were studied. Therefore, RAG1 KO mice lack mature T and B cells (Mombaerts et al., 1992). RAG1 KO mice were exposed to CH for 21 days or left in normoxia. […] RVSP was measured by direct cardiac puncture under isoflurane anesthesia (Bierer et al., 2011). The inventors also isolated CD4^+ or CD8+ cells from the lymph nodes of WT mice by negative selection using a magnetic bead cell isolation kit (Miltenyi Biotec). 2.5×10^5 cells were injected into RAG1 KO mice. After 2 weeks mice were exposed to CH or normoxia.

[3] = molecular target: T1, RORγt (Homo sapiens, UniProt P51449); details: selective inverse agonist; Solt et al., 2011, 2012; cited from earlier work
T1 sequence (P51449 1-497 isoform P51449-2): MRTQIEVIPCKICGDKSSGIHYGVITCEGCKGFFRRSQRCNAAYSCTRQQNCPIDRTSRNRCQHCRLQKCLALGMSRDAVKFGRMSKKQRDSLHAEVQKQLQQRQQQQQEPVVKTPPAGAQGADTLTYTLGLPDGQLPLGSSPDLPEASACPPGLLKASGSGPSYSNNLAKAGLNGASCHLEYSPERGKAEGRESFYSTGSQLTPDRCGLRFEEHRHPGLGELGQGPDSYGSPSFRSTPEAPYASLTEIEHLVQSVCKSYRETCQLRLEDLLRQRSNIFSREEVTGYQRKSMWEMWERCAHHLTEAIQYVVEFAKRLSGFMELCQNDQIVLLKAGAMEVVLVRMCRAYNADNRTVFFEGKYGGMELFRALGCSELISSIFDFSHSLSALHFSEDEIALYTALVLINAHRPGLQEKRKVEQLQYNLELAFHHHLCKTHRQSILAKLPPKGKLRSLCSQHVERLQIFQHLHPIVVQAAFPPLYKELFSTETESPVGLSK

[4] = test system: perivascular T cells (CD3+); assay: Perivascular CD3+ T cells in lung sections of mice exposed to chronic hypoxia (immunohistochemistry); assay type: in vivo; details: WT mice, CH for 2, 5 or 21 days; SR1001 0.625 mg/day for 25 g mouse s.c.; vs vehicle
Method: FIGS. 5A-D—Inhibition of TH17 cell development decreases CH-induced increases in perivascular T cells. Following treatment, lungs sections were stained with an anti-CD3 antibody to allow quantification of CD3+ T cells in the perivascular region of the lungs. The RORyt specific inhibitor, SR1001 was delivered daily by sub-cutaneous injection (0.625 mg/day for 25 g mouse) for the length of normoxic or CH exposure. (A) Perivascular CD3+ cells from mice exposed to 2 days, (B) 5 days or (C) 21 days of normoxia or CH. (D) Representative images of lung sections from mice exposed to CH with or without SR1001. Values are means±SEM, *p<0.05 vs. normoxia vehicle. n=3-4/group, 5-15 arteries<150 μm outer circumference, per mouse, analyzed by 2-way ANOVA followed by multiple comparisons Student-Newman-Keuls test.
as §1, with “Mex.). […]” for “Mex.).”

[5] = molecular target: T2, RORα (Homo sapiens, UniProt P35398); details: selective inverse agonist; Solt et al., 2011, 2012; cited from earlier work
T2 sequence (P35398 1-523): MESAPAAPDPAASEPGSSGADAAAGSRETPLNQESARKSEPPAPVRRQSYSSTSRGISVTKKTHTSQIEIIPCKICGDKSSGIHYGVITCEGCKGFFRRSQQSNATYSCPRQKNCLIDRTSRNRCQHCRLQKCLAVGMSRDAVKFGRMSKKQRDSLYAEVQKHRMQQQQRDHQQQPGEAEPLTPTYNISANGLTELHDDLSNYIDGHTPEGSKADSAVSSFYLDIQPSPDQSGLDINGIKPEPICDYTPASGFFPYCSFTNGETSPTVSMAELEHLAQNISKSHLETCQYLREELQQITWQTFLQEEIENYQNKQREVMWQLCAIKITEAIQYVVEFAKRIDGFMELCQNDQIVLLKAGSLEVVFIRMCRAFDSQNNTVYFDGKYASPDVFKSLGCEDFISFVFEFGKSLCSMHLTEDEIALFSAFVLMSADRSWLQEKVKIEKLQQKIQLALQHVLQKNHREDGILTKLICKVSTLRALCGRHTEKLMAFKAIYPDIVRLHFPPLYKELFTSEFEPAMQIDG

[6] = test system: established PH due to CH; assay: Established CH-induced pulmonary hypertension (reversal: 3 weeks CH, then SR1001 for 2 more weeks in CH); assay type: in vivo; details: mice
Method: FIGS. 7A-D—TH17 cell inhibition attenuates increases in RVSP in established PH. Wild-type mice were exposed to CH for 21 days followed by administration of SR1001 (25 mg/kg/day s.c.) for an additional 14 days in CH. (A) RVSP. (B) Fulton's index. (C) Pulmonary arterial remodeling. (D) % Hematocrit. Values are means±SEM; *p<0.05 vs. vehicle, n=5-6/group, analyzed by unpaired T-test.
as §1
To follow up on the immunologic timing of events, studies were undertaken to understand whether PH due to CH might be reversed once already established by inhibiting TH17 cell development. Therefore, after 3 weeks of CH, osmotic pumps containing SR1001 (0.625 mg/day for 25 g mouse). were implanted sub-cutaneously and animals were immediately returned to CH for an additional 2 weeks (5 weeks of CH total).

[7] = test system: TH17 cell development; details: Solt et al., 2011; cited from earlier work; remark: listed apart in the source
[8] = 3 weeks CH then SR1001 for additional 2 weeks in CH

Structure (SMILES): CC(=O)Nc1nc(C)c(S(=O)(=O)Nc2ccc(C(O)(C(F)(F)F)C(F)(F)F)cc2)s1 [SR1001, N-(5-(N-(4-(1,1,1,3,3,3-hexafluoro-2-hydroxypropan-2-yl)phenyl)sulfamoyl)-4-methylthiazol-2-yl)acetamide]
- TH17 cell development in vitro [1]: inhibits TH17 cell development
- CH-induced increase in RV remodeling (Fulton's index) [2]: attenuated
- CH-induced increase in RVSP [2]: attenuated
- CH-induced increase in pulmonary arterial remodeling (% wall thickness) [2]: attenuated
- activity of nuclear receptor RORγt [3]: inhibits the activity
- perivascular T cells (CD3+) in the pulmonary arterial perivascular region [4]: significant reduction
- activity of nuclear receptor RORα [5]: inhibits the activity
- already elevated RVSP ([6]; 3 weeks CH then SR1001 (0.625 mg/day for 25 g mouse, s.c. osmotic pump) for additional 2 weeks in CH): significantly decreased
- perivascular T cells in the lungs [6, 8]: significant decrease
- pulmonary arterial remodeling [6, 8]: no effect
- RV remodeling (Fulton's index) ([6]; 3 weeks CH then SR1001 for additional 2 weeks in CH, p<0.0583): strong trend for a decrease
- TH17 cell development in vivo [7]: inhibits TH17 cell development
